Laboratory results published in patent US20180353460A1, “METHODS OF TREATING UROLOGICAL DISORDERS USING SARMs” (priority 2014, published 2018).
“And” between values parts separate entries of the source, which are not always exact repeats. Equal entries are not always repeated.

Tests used:
Assay type in all cases: in vivo, rat
[1] = tested on: prostate, seminal vesicles and levator ani muscle; test: Androgenic and anabolic activity in castrated immature male rats, subcutaneous osmotic pumps, 14 days; conditions: castrated rats, 14 days, FIG. 2
Description: Immature male Sprague-Dawley rats, weighing 90 to 100 g, were purchased from Harlan Biosciences (Indianapolis, Ind.). The animals were maintained on a 12 hour light-dark cycle with food and water available ad libitum.
Rats were randomly distributed into treatment groups groups. One day prior to the start of drug treatment, animals were individually removed from the cage, weighed and anesthetized with an intraperitoneal dose of ketamine/xylazine (87/13 mg/kg; approximately 1 mL per kg). When appropriately anesthetized (i.e., no response to toe pinch), the animals' ears were marked for identification purposes. Animals were then placed on a sterile pad and their abdomen and scrotum washed with betadine and 70% alcohol. The testes were removed via a midline scrotal incision, with sterile suture being used to ligate supra-testicular tissue prior to surgical removal of each testis. The surgical wound site was closed with sterile stainless steel wound clips, and the site cleaned with betadine. The animals were allowed to recover on a sterile pad (until able to stand) and then returned to their cage.
Twenty-four hours later, animals were re-anesthetized with ketamine/xylazine, and an Alzet osmotic pump(s) (model 2002) was placed subcutaneouly in the scapular region. In this instance, the scapular region was shaved and cleaned (betadine and alcohol) and a small incision (1 cm) made using a sterile scalpel. The osmotic pump was inserted and the wound closed with a sterile stainless steel wound clip. Animals were allowed to recover and were returned to their cage. Osmotic pumps contained the appropriate treatment dissolved in polyethylene glycol 300 (PEG300). Osmotic pumps were filled with the appropriate solution one day prior to implantation. Animals were monitored daily for signs of acute toxicity to drug treatment (e.g., lethargy, rough coat).
After 14 days of drug treatment, rats were anesthetized with ketamine/xylazine. Animals were then sacrificed by exsanguinations under anesthesia. A blood sample was collected by venipuncture of the abdominal aorta, and submitted for complete blood cell analysis. A portion of the blood was placed in a separate tube, centrifuged at 12,000 g for 1 minute, and the plasma layer removed and frozen at −20° C. The ventral prostates, seminal vesicles, levator ani muscle, liver, kidneys, spleen, lungs, and heart were removed, cleared of extraneous tissue, weighed, and placed in vials containing 10% neutral buffered formalin. Preserved tissues were sent for histopathological analysis.
For data analysis, the weights of all organs were normalized to body weight, and analyzed for any statistical significant difference by single-factor ANOVA. The weights of prostate and seminal vesicle were used as indexes for evaluation of androgenic activity, and the levator ani muscle weight was used to evaluate the anabolic activity.

[2] = tested on: prostate, seminal vesicles and levator ani muscle; test: Androgenic and anabolic effects in intact, hemi-orchidectomized and castrated rats, subdermal osmotic pumps, 14 days; conditions: 0.5 mg/day; for Levator Ani weight / prostate weight / seminal vesicle weight: n = 5
Description: Male Sprague-Dawley rats were purchased from Harlan Biosciences (Indianapolis, Ind.). The animals were maintained on a 12 h cycle of light and dark with food and water available ad libitum. All animal studies were reviewed and approved. Immature male Sprague-Dawley rats weighing 187 to 214 g were randomly distributed into 9 groups of 5 animals. One day before the initiation of drug treatment, groups 4 through 6 and groups 7 through 9 received unilateral or bilateral orchidectomy, respectively, via a midline scrotal incision. […] All drugs given to animals were freshly prepared as solutions in polyethylene glycol 300 (PEG 300). Groups 4 and 7 received treatment with vehicle alone (i.e., PEG 300). […] Animals in groups 2, 5, and 8 received compound of Formula XII (0.5 mg/day) via implantation of subdermal osmotic pumps. After 14 days of drug treatment, rats were weighed, anesthetized, and sacrificed. The ventral prostates, seminal vesicles, and levator ani muscle were removed and weighed. Osmotic pumps were also removed from animals to check for correct pump operation. The weights of all organs were normalized to body weight, and analyzed for any statistically significant differences between groups using single-factor ANOVA with the alpha value set a priori at p<0.05. The weights of prostates and seminal vesicles were used as indices for evaluation of androgenic activity, and the levator ani muscle weight was used to evaluate the anabolic activity. Statistical analyses of parameters from complete blood count or serum chemical profiling, wherever applicable, were performed by single-factor ANOVA with the alpha value set a priori at p<0.05.

[3] = tested on: prostate, seminal vesicles and levator ani muscle; test: Androgenic and anabolic activity in castrated (ORX) male rats, daily oral gavage for fourteen days; conditions: castrated rats, comparators
Description: Male Sprague-Dawley rats weighing approximately 200 g were purchased from Harlan Bioproducts for Science (Indianapolis, Ind.). […] The anabolic and androgenic activity of compound of Formula VIII in intact animals was tested, as well as a dose response evaluation in acutely orchidectomized (ORX) animals. Regenerative effects of the compound of Formula VIII in chronically (9 days) ORX rats was similarly evaluated.
The test article for this study was weighed and dissolved in 10% DMSO (Fisher) diluted with PEG 300 (Acros Organics, NJ) for preparation of the appropriate dosage concentrations. […] Animals were randomly assigned to one of seven groups consisting of 4 to 5 animals per group. Control groups (intact and ORX) were administered vehicle daily. Compound of Formula VIII was administered via oral gavage at doses of 0.01, 0.03, 0.1, 0.3, 0.75, and 1 mg/day to both intact and ORX groups. Where appropriate, animals were castrated on day one of the study. Treatment with compound of Formula VIII began nine days post ORX and was administered daily via oral gavage for fourteen days.
(§1) In addition, ventral prostate, seminal vesicles, and levator ani muscle were removed, individually weighed, normalized to body weight, and expressed as a percentage of intact control. Student's T-test was used to compare individual dose groups to the intact control group. Significance was defined a priori as a P-value <0.05. Ventral prostate and seminal vesicle weights were evaluated as a measure of androgenic activity, whereas levator ani muscle weight was evaluated as a measure of anabolic activity. Blood was collected from the abdominal aorta, centrifuged, and sera were frozen at −80° C. prior to determination of serum hormone levels. Serum luteinizing hormone (LH) and follicle stimulating hormone (FSH) concentrations were determined.
Male Sprague-Dawley rats weighing approximately 200 g were purchased from Harlan Bioproducts for Science (Indianapolis, Ind.). […] Anabolic and androgenic activity of compound of Formula IX in intact animals was evaluated, and the dose response in acutely orchidectomized (ORX) animals was evaluated as well. Regenerative effects of compound of Formula IX in chronically (9 days) ORX rats were also assessed.
The compound was weighed and dissolved in 10% DMSO (Fisher) diluted with PEG 300 (Acros Organics, NJ) for preparation of the appropriate dosage concentrations. […] Intact and ORX animals were randomly assigned to one of seven groups consisting of 4 to 5 animals per group. Control groups (intact and ORX) were administered vehicle daily. Compound of Formula IX was administered via oral gavage at doses of 0.01, 0.03, 0.1, 0.3, 0.75, and 1 mg/day to both intact and ORX groups.
as §1, with “Castrated animals (on day one of the study) were randomly assigned to dose groups (4-5 animals/group) of 0.01, 0.03, 0.1, 0.3, 0.75, and 1 mg/day, for dose-response evaluation. Dosing began nine days post ORX and was administered daily via oral gavage for fourteen days. […] In” for “In”, “As a measure of androgenic activity, ventral” for “Ventral”, “evaluated,” for “evaluated as a measure of androgenic activity,”, “lutenizing” for “luteinizing”
Male Sprague-Dawley rats weighing approximately 200 g were purchased from Harlan Bioproducts for Science (Indianapolis, Ind.).

[4] = tested on: prostate, seminal vesicles and levator ani muscle; test: Androgenic and anabolic activity in intact male rats, daily oral gavage
Description: Male Sprague-Dawley rats weighing approximately 200 g were purchased from Harlan Bioproducts for Science (Indianapolis, Ind.). The animals were maintained on a 12 h light/dark cycle with food (7012C LM-485 Mouse/Rat Sterilizable Diet, Harlan Teklad, Madison, Wis.) and water available ad libitum. The anabolic and androgenic activity of compound of Formula VIII in intact animals was tested, as well as a dose response evaluation in acutely orchidectomized (ORX) animals. Regenerative effects of the compound of Formula VIII in chronically (9 days) ORX rats was similarly evaluated.
The test article for this study was weighed and dissolved in 10% DMSO (Fisher) diluted with PEG 300 (Acros Organics, NJ) for preparation of the appropriate dosage concentrations. The animals were housed in groups of 2 to 3 animals per cage. Animals were randomly assigned to one of seven groups consisting of 4 to 5 animals per group. Control groups (intact and ORX) were administered vehicle daily. Compound of Formula VIII was administered via oral gavage at doses of 0.01, 0.03, 0.1, 0.3, 0.75, and 1 mg/day to both intact and ORX groups. Where appropriate, animals were castrated on day one of the study. Treatment with compound of Formula VIII began nine days post ORX and was administered daily via oral gavage for fourteen days.
as §1, with “The animals were sacrificed under anesthesia (ketamine/xyalzine, 87:13 mg/kg) and body weights were recorded. In” for “In”
Male Sprague-Dawley rats weighing approximately 200 g were purchased from Harlan Bioproducts for Science (Indianapolis, Ind.). The animals were maintained on a 12 h light/dark cycle with food (7012C LM-485 Mouse/Rat Sterilizable Diet, Harlan Teklad, Madison, Wis.) and water available ad libitum. Anabolic and androgenic activity of compound of Formula IX in intact animals was evaluated, and the dose response in acutely orchidectomized (ORX) animals was evaluated as well. Regenerative effects of compound of Formula IX in chronically (9 days) ORX rats were also assessed.
The compound was weighed and dissolved in 10% DMSO (Fisher) diluted with PEG 300 (Acros Organics, NJ) for preparation of the appropriate dosage concentrations. The animals were housed in groups of 2 to 3 animals per cage. Intact and ORX animals were randomly assigned to one of seven groups consisting of 4 to 5 animals per group. Control groups (intact and ORX) were administered vehicle daily. Compound of Formula IX was administered via oral gavage at doses of 0.01, 0.03, 0.1, 0.3, 0.75, and 1 mg/day to both intact and ORX groups.
Castrated animals (on day one of the study) were randomly assigned to dose groups (4-5 animals/group) of 0.01, 0.03, 0.1, 0.3, 0.75, and 1 mg/day, for dose-response evaluation. Dosing began nine days post ORX and was administered daily via oral gavage for fourteen days. The animals were sacrificed under anesthesia (ketamine/xyalzine, 87:13 mg/kg) after a 14-day dosing regimen, and body weights were recorded. In addition, ventral prostate, seminal vesicles, and levator ani muscle were removed, individually weighed, normalized to body weight, and expressed as a percentage of intact control. Student's T-test was used to compare individual dose groups to the intact control group. […]

| Compound | Levator Ani weight ([2]; Castrated rats) | prostate weight ([2]; Castrated rats) | seminal vesicle weight ([2]; Castrated rats) | Levator Ani weight ([2]; Hemi-castrated rats) | prostate weight ([2]; Hemi-castrated rats) | seminal vesicle weight ([2]; Hemi-castrated rats) | Levator Ani weight ([2]; Intact rats) | prostate weight ([2]; Intact rats) | seminal vesicle weight ([2]; Intact rats) | maximal stimulation of levator ani muscle weight [3] | other results |
| --- | --- | --- | --- | --- | --- | --- | --- | --- | --- | --- | --- |
| CCC(=O)O[C@H]1CC[C@H]2[C@@H]3CCC4=CC(=O)CC[C@]4(C)[C@H]3CC[C@]12C [TP, testosterone propionate, reference compound] | 87.27 ± 10.25 % of intact control | 76.78 ± 10.43 % of intact control | 63.48 ± 17.05 % of intact control | 98.63 ± 10.47 % of intact control | 98.57 ± 7.98 % of intact control | 114.19 ± 23.81 % of intact control | 95.61 ± 9.34 % of intact control | 97.45 ± 10.82 % of intact control | 103.95 ± 13.23 % of intact control | 104% | weights of prostate, seminal vesicle and levator ani muscle [1]: increased the weights of prostate, seminal vesicle, and levator ani muscle in castrated rats in a dose-dependent manner |
| C[C@](O)(COc1ccc(Cl)c(F)c1)C(=O)Nc1ccc(C#N)c(C(F)(F)F)c1 [XIV, (S)-3-(4-chloro-3-fluorophenoxy)-N-(4-cyano-3-(trifluoromethyl)phenyl)-2-hydroxy-2-methylpropanamide] | – | – | – | – | – | – | – | – | – | – | levator ani muscle weight ([4]; 0.01 mg/day): 100%±10%; prostate weight ([4]; 0.01 mg/day): 117%±20%; levator ani muscle weight ([4]; 0.03 mg/day): 98%±7%; prostate weight ([4]; 0.03 mg/day): 98%±15%; levator ani muscle weight ([4]; 0.1 mg/day): 110%±5%; prostate weight ([4]; 0.1 mg/day): 82%±20%; levator ani muscle weight ([4]; 0.3 mg/day): 110%±5%; prostate weight ([4]; 0.3 mg/day): 62%±5%; levator ani muscle weight ([4]; 0.75 mg/day): 125%±10%; prostate weight ([4]; 0.75 mg/day): 107%±30%; levator ani muscle weight ([4]; 1 mg/day): 129%±10%; prostate weight ([4]; 1 mg/day): 110%±14% |
| CC(=O)Nc1ccc(OC[C@](C)(O)C(=O)Nc2ccc([N+](=O)[O-])c(C(F)(F)F)c2)cc1 [XII, S-3-(4-acetylaminophenoxy)-2-hydroxy-2-methyl-N-(4-nitro-3-trifluoromethylphenyl) propionamide] | 100.65 ± 10.86 % of intact control | 32.55 ± 11.65 % of intact control | 16.47 ± 5.21 % of intact control | 108 % of intact control and 108.10 ± 8.92 % of intact control | 75 % of intact control and 74.69 ± 8.44 % of intact control | 79 % of intact control and 78.55 ± 13.58 % of intact control | 109.15 ± 14.68 % of intact control | 79 % of intact control and 79.41 ± 9.32 % of intact control | 90.54 ± 12.10 % of intact control | 101% | adverse pharmacologic effects [2]: No adverse pharmacologic effects were observed |
